The subject of the experiment is Diabetic rats. Nature of the experiment: In vivo study of effect on Nerve Conduction Velocity (NCV) in streptozotocin-induced diabetic rats. Conditions: 150 mg/kg, 8 weeks of treatment after 12 weeks of diabetes, streptozotocin diabetic male Wistar rats; compared with diabetic control rats treated with vehicle; ***p<0.001 by student's t-test (FIG. 1). On the procedure: Motor nerve conduction velocity evaluation was performed as a measure of AGE related diabetic complications.
In vivo study to evaluate effect of compound of present invention on Nerve Conduction Velocity
Healthy male Wistar rats, 170-250 g, 6-10 weeks old, were selected for the study. The animals were divided into two groups i.e. a non-diabetic control group (Normal Control Rats) and a diabetic group. Diabetes was induced (in the diabetic group of animals) by a single intraperitoneal injection of streptozotocin (60 mg/kg body weight) dissolved in citrate buffer (pH 4.5) (Biro et al; Brain Research Bulletin (1997) 44(3): 259-263). […]
150 mg/kg of Compound No 1 was administered to diabetic rats and diabetic control group was treated with vehicle for Compound 1. The rats were monitored throughout the experiment for water intake, food intake, changes in body weight, blood biochemistry parameters, urine parameters and mortality. […]
After 8 weeks of treatment NCV was estimated as described by Biro et al, (1997). […] Electromyograms (EMG's) from the plantar muscles were amplified and recorded using a data acquisition system (MacLab®, ADI instruments). […] Latency and the duration of the M responses were measured and the motor nerve conduction velocity (MNCV) was calculated. […]
Anode was placed in proximity to the cathode. Upon stimulation of the nerve, responses (EMG) were recorded from the plantar surface. […]

In the case of `CS(=O)(=O)NNC(=O)c1ccc[n+](CC(=O)c2cccs2)c1` [Compound 1], the “Nerve Conduction Velocity (NCV)” value is given as “improvement in NCV”.

The values above are taken from patent US10717727B2, “Pyridinium compounds” (TORRENT PHARMACEUTICALS LIMITED, priority 2015, dated 2020).
